The values that follow come from patent US9586951B2 (FUJIFILM Corporation, priority 2013, dated 2017).

In the assay the target is T1, ATM (Homo sapiens, UniProt Q13315).
T1 construct: detecting phosphorylation of Chk2 in a human non-small cell lung cancer cell line NCI-H460 (ATCC company); host or cells: NCI-H460 human non-small cell lung cancer cells
T1 sequence (Q13315 whole entry): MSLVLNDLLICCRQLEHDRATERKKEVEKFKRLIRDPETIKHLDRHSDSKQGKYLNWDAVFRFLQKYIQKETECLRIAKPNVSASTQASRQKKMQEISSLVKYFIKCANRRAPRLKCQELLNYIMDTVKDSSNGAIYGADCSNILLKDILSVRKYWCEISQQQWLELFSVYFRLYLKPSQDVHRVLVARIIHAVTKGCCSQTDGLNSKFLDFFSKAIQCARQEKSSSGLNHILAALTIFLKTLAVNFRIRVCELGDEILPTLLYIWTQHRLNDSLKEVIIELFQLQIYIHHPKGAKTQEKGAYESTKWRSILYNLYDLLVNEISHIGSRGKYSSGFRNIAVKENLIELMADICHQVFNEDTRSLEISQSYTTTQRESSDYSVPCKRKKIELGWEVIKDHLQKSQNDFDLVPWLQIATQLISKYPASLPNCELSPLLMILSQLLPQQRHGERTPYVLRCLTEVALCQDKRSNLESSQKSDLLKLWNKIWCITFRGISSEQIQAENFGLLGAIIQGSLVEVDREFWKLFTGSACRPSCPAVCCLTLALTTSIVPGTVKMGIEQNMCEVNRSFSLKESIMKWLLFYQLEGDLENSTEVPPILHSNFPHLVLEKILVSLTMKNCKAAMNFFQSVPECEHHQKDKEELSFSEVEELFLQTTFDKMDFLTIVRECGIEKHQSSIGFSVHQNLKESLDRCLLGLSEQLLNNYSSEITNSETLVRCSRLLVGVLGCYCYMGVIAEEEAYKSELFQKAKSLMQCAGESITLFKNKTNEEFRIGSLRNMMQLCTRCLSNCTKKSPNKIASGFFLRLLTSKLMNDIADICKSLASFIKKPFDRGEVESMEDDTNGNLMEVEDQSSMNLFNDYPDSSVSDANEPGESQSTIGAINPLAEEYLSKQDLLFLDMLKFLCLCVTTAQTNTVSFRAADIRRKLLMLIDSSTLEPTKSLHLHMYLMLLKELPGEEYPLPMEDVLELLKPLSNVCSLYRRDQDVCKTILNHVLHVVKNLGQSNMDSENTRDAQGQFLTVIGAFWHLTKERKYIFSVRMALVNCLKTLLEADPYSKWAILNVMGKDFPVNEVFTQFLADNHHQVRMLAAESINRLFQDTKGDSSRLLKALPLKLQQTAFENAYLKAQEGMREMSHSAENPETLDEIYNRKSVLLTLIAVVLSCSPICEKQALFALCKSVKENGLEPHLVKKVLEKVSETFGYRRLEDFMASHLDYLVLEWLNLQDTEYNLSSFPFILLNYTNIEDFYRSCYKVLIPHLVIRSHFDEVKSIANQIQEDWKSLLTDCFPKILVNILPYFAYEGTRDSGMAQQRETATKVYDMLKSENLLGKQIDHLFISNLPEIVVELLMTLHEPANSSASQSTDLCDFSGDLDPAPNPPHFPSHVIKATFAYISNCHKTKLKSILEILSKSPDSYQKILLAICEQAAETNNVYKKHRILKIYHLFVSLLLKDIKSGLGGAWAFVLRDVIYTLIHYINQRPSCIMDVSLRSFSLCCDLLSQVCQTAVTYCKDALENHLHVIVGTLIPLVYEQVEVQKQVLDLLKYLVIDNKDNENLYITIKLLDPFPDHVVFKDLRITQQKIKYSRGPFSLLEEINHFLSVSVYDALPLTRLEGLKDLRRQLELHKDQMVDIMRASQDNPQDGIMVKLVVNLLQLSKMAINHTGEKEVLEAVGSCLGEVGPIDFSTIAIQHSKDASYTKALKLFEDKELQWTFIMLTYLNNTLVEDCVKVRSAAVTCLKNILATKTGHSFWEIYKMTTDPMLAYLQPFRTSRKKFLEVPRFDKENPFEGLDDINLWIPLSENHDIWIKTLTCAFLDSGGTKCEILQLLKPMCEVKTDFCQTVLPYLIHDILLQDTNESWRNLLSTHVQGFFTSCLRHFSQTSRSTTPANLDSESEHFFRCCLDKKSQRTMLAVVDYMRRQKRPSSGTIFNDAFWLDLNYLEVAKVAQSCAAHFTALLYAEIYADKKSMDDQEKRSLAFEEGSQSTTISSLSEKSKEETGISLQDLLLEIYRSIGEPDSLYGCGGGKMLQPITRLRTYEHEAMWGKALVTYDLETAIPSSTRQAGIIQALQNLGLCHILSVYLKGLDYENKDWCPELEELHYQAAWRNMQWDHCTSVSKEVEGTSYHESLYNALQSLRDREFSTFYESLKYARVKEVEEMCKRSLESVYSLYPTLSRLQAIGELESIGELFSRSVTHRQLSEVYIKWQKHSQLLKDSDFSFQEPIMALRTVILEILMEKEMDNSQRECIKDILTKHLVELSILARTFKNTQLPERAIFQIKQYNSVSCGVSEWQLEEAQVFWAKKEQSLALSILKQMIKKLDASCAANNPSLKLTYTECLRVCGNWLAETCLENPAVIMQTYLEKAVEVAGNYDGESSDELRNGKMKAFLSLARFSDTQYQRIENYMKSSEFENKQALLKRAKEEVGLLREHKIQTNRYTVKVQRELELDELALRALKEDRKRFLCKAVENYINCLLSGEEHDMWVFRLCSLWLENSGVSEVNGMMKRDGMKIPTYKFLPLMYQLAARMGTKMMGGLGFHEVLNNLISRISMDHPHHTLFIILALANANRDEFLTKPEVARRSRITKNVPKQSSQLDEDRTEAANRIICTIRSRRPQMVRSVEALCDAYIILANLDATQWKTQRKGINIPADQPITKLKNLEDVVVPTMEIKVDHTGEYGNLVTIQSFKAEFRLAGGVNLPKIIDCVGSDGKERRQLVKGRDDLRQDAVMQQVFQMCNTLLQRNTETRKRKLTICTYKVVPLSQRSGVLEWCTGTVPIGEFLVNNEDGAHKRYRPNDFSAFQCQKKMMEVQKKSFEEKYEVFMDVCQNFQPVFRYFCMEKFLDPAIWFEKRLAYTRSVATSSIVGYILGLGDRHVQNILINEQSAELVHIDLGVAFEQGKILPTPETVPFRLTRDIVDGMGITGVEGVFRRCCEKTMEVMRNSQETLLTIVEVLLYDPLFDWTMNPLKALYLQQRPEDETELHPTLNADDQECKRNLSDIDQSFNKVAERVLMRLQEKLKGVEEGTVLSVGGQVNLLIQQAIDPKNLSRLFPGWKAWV
As to the kind of experiment: ATM inhibition test (phosphorylation of Chk2 generated by ionizing radiation, AlphaScreen SureFire). The format is cell-based. The following applies: phosphorylated Chk2 in NCI-H460 cells, ionizing radiation 8Gy, 1 hour after test compound treatment; read-out: ATM inhibitory activity. Summed up:
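In NCI-H460 cells, radiation-triggered Chk2 phosphorylation (8Gy, 1 h) is detected by AlphaScreen SureFire following 1 h compound exposure.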
In the case of `COCCN(C)CCC(Nc1ccc2c(c1)Sc1cccc(-c3cc(N4CCOCC4)cc(=O)[nH]3)c1S2)c1cnc(C)cn1` (single isomer, unassigned) [Example 10-3-4, 6-(7-((3-((2-Methoxyethyl) (methyl)amino)-1-(5-methylpyrazin-2-yl)propyl)amino)thianthren-1-yl)-4-morpholino pyridin-2(1H)-one], the IC50 is less than 100 nM.
Consider `O=c1cc(N2CCOCC2)cc(-c2cccc3c2Sc2ccc(NC4CCC(N5CCOCC5)CC4)cc2S3)[nH]1` (stereo not drawn) [Example 1-36-1, 4-Morpholino-6-(7-((4-morpholinocyclohexyl)amino)thianthren-1-yl)pyridin-2(1H)-one], for which the IC50 lay within 100 to 500 nM.
With `CC(Nc1ccc2c(c1)Sc1cccc(-c3cc(N4CCOCC4)cc(=O)[nH]3)c1S2)C(=O)N1CCOCC1` (stereo not drawn) [Example 1-18-5], the IC50 lay within 500 to 2000 nM.
`COCC(CN1CCOCC1)Nc1ccc2c(c1)Sc1cccc(-c3cc(N4CCOCC4)cc(=O)[nH]3)c1S2` (single isomer, unassigned) [Example 1-17-1-3, 6-(7-((1-methoxy-3-morpholinopropan-2-yl)amino)thianthren-1-yl)-4-morpholinopyridin-2(1H)-one]: the IC50 lay in the range of 100 to 500 nM.
As to `O=c1cc(N2CCOCC2)cc(-c2cccc3c2Oc2ccc(NCc4cccnc4)cc2C3)[nH]1` [Example 2-3-1, 4-Morpholino-6-(7-((pyridin-3-ylmethyl)amino)-9H-xanthen-4-yl)pyridin-2(1H)-one], the IC50 lay in the range of 100 to 500 nM.
As for `Cc1ccc(C(CC2CC2)Nc2ccc3c(c2)Sc2cccc(-c4cc(N5CCOCC5)cc(=O)[nH]4)c2S3)nc1` (stereo not drawn) [Example 1-12-128, 6-(7-((2-Cyclopropyl-1-(5-methylpyridin-2-yl)ethyl)amino)thianthren-1-yl)-4-morpholino pyridin-2(1H)-one], the IC50 lay in the range of 100 to 500 nM.
As for `O=c1cc(N2CCOCC2)cc(-c2cccc3c2Oc2ccc(NCc4ccnc(Cl)c4F)cc2C3)[nH]1` [Example 2-2-19, 6-(7-(((2-Chloro-3-fluoropyridin-4-yl)methyl)amino)-9H-xanthen-4-yl)-4-morpholino pyridin-2(1H)-one], the IC50 was 100 to 500 nM.
As for `Cc1ncsc1CNc1ccc2c(c1)Cc1cccc(-c3cc(N4CCOCC4)cc(=O)[nH]3)c1O2` [Example 2-13-2, 6-(7-(((4-Methylthiazol-5-yl)methyl)amino)-9H-xanthen-4-yl)-4-morpholino pyridin-2(1H)-one], the IC50 lay in the range of 100 to 500 nM.
Consider `CNCc1cccc(C(C)Nc2ccc3c(c2)Sc2cccc(-c4cc(N5CCOCC5)cc(=O)[nH]4)c2S3)n1` (stereo not drawn) [Example 1-20-8, 6-(7-((1-(6-((Methylamino)methyl)pyridin-2-yl)ethyl)amino)thianthren-1-yl)-4-morpholino pyridin-2(1H)-one], for which the IC50 lay within 100 to 500 nM.
With `Cc1cnc(C(CCN(C)C)Nc2ccc3c(c2)Sc2cccc(-c4cc(=O)cc(N5CCOCC5)o4)c2S3)cn1` (single isomer, unassigned) [Example 10-8, 2-(7-((3-(dimethylamino)-1-(5-methylpyrazin-2-yl)propyl)amino)thianthren-1-yl)-6-morpholino-4H-pyran-4-one], the IC50 was less than 100 nM.
Regarding `O=c1cc(N2CCOCC2)cc(-c2cccc3c2Oc2ccc(NC4CCCN(CCc5ccccc5)C4)cc2S3)[nH]1` (stereo not drawn) [Example 4-6-3], the IC50 lay in the range of 100 to 500 nM.
As to `CC(Nc1ccc2c(c1)Sc1cccc(-c3cc(N4CCOCC4)cc(=O)[nH]3)c1S2)c1ncc(CO)cn1` (single isomer, unassigned) [Example 1-12-142-2, 6-(7-((1-(5-(hydroxymethyl)pyrimidin-2-yl)ethyl)amino)thianthren-1-yl)-4-morpholinopyridin-2(1H)-one], the IC50 was 100 to 500 nM.
Take `CC(Nc1ccc2c(c1)Sc1cccc(-c3cc(N4CCOCC4)cc(=O)[nH]3)c1S2)C(=O)N1CCCC1` (stereo not drawn) [Example 1-18-4]: the IC50 is 100 to 500 nM.
With `Cc1ccc(C(Nc2ccc3c(c2)Sc2cccc(-c4cc(N5CCOCC5)cc(=O)[nH]4)c2S3)[C@H]2CN(C)CCO2)nc1` (single isomer, unassigned) [Example 1-56-12], the IC50 is less than 100 nM.
Regarding `O=c1cc(N2CCOCC2)cc(-c2cccc3c2Oc2ccc(NCCN4CCOCC4)cc2C3)[nH]1` [Example 2-23-2, 4-Morpholino-6-(7-((2-morpholinoethyl)amino)-9H-xanthen-4-yl)pyridin-2(1H)-one], the IC50 was 500 to 2000 nM.
In the case of `O=c1cc(N2CCOCC2)cc(-c2cccc3c2Sc2ccc(NCc4cncc(-n5cccc5)c4)cc2S3)[nH]1` [Example 1-12-19, 6-(7-(((5-(1H-Pyrrol-1-yl)pyridin-3-yl)methyl)amino)thianthren-1-yl)-4-morpholino pyridin-2(1H)-one], the IC50 was less than 100 nM.
Turning to `O=c1cc(N2CCOCC2)cc(-c2cccc3c2Sc2ccc(NC4CCN(Cc5cccnc5)C4)cc2S3)[nH]1` (stereo not drawn) [Example 1-24-11, 4-Morpholino-6-(7-((1-(pyridin-3-ylmethyl)pyrrolidin-3-yl)amino)thianthren-1-yl)pyridin-2 (1H)-one], the IC50 is less than 100 nM.
In the case of `CC(CNc1ccc2c(c1)Sc1cccc(-c3cc(N4CCOCC4)cc(=O)[nH]3)c1S2)N1CCOCC1` (single isomer, unassigned) [Example 1-9-2-3, 4-morpholino-6-(7-((2-morpholinopropyl)amino)thianthren-1-yl)pyridin-2(1H)-one], the IC50 lay within 100 to 500 nM.
Consider `Cc1ccc(CNc2ccc3c(c2)Cc2cccc(-c4cc(N5CCOCC5)cc(=O)[nH]4)c2O3)s1` [Example 2-14-40, 6-(7-(((5-Methylthiophen-2-yl)methyl)amino)-9H-xanthen-4-yl)-4-morpholino pyridin-2(1H)-one], for which the IC50 is 500 to 2000 nM.
Regarding `COCCNCc1cccc(C(C)Nc2ccc3c(c2)Sc2cccc(-c4cc(N5CCOCC5)cc(=O)[nH]4)c2S3)n1` (stereo not drawn) [Example 1-20-9, 6-(7-((1-(6-(((2-Methoxyethyl)amino)methyl)pyridin-2-yl)ethyl)amino)thianthren-1-yl)-4-morpholino pyridin-2 (1H)-one], the IC50 lay in the range of 100 to 500 nM.
As for `Cc1cncc(CNc2ccc3c(c2)Sc2cccc(-c4cc(N5CCOCC5)cc(=O)[nH]4)c2S3)n1` [Example 1-12-60, 6-(7-(((6-Methylpyrazin-2-yl)methyl)amino)thianthren-1-yl)-4-morpholino pyridin-2(1H)-one], the IC50 was 100 to 500 nM.
For `O=c1cc(N2CCOCC2)cc(-c2cccc3c2Sc2ccc(NCCN4CC(F)(F)C4)cc2S3)[nH]1` [Example 1-10-3, 6-(7-((2-(3,3-Difluoroazetidin-1-yl)ethyl)amino)thianthren-1-yl)-4-morpholinopyridin-2(1H)-one], the IC50 is 100 to 500 nM.
As to `O=c1cc(N2CCOCC2)cc(-c2cccc3c2Oc2ccc(NC4CCN(CCc5ccncc5)CC4)cc2C3)[nH]1` [Example 2-30-7, 4-Morpholino-6-(7-((1-(2-(pyridin-4-yl)ethyl)piperidin-4-yl)amino)-9H-xanthen-4-yl)pyridin-2(1H)-one], the IC50 is 100 to 500 nM.
Take `Cc1ccnc(CNc2ccc3c(c2)Cc2ccnc(-c4cc(N5CCOCC5)cc(=O)[nH]4)c2O3)c1` [Example 2-41-7, 6-(7-(((4-Methylpyridin-2-yl)methyl)amino)-5H-chromeno [2,3-c]pyridin-1-yl)-4-morpholino pyridin-2(1H)-one]: the IC50 is 100 to 500 nM.
With `O=c1cc(N2CCOCC2)cc(-c2cc(F)cc3c2Oc2ccc(NCc4cncc(Cl)c4)cc2C3)[nH]1` [Example 2-48-3, 6-(7-(((5-Chloropyridin-3-yl)methyl)amino)-2-fluoro-9H-xanthen-4-yl)-4-morpholinopyridin-2(1H)-one], the IC50 was in the range of 100 to 500 nM.
Regarding `O=c1cc(N2CCOCC2)cc(-c2cccc3c2Oc2ccc(Nc4cccnc4)cc2C3)[nH]1` [Example 2-61, 4-Morpholino-6-(7-(pyridin-3-ylamino)-9H-xanthen-4-yl)pyridin-2(1H)-one], the IC50 fell in the range of 500 to 2000 nM.
`Cc1cccc(CNc2ccc3c(c2)Cc2cccc(-c4cc(N5CCOCC5)cc(=O)[nH]4)c2O3)n1` [Example 2-2-24, 6-(7-(((6-Methylpyridin-2-yl)methyl)amino)-9H-xanthen-4-yl)-4-morpholino pyridin-2(1H)-one]: the IC50 was in the range of 100 to 500 nM.
Take `CC(Nc1ccc2c(c1)Sc1cccc(-c3cc(N4CCOCC4)cc(=O)[nH]3)c1S2)c1cc(C#N)ncn1` (single isomer, unassigned) [Example 1-12-146-2, 6-(1-((6-(4-morpholino-6-oxo-1,6-dihydropyridin-2-yl)thianthren-2-yl)amino)ethyl)pyrimidine-4-carbonitrile]: the IC50 was in the range of 100 to 500 nM.
As to `CC(C)(C)OC(=O)N1CCC(Nc2ccc3c(c2)Cc2cccc(-c4cc(N5CCOCC5)cc(=O)[nH]4)c2O3)CC1` [Example 2-3-12, tert-Butyl 4-((5-(4-morpholino-6-oxo-1,6-dihydropyridin-2-yl)-9H-xanthen-2-yl)amino) piperidine-1-carboxylate], the IC50 lay in the range of 100 to 500 nM.
On to `Nc1ccc2c(c1)CCc1cccc(-c3cc(N4CCOCC4)cc(=O)[nH]3)c1O2` [Example 2-50, 6-(8-Amino-10,11-dihydrodibenz[b,f]oxepin-4-yl)-4-morpholinopyridin-2(1H)-one], for which the IC50 lay in the range of 500 to 2000 nM.
As to `O=c1cc(N2CCOCC2)cc(-c2cccc3c2Sc2ccc(NCCN4CCS(=O)(=O)CC4)cc2S3)[nH]1` [Example 1-16-8, 6-(7-((2-(1,1-Dioxidethiomorpholino)ethyl)amino)thianthren-1-yl)-4-morpholinopyridin-2(1H)-one], the IC50 was 100 to 500 nM.
Regarding `Cc1cccc(C(Nc2ccc3c(c2)Sc2cccc(-c4cc(N5CCOCC5)cc(=O)[nH]4)c2S3)C2CCCNC2)n1` (stereo not drawn) [Example 1-20-13, 6-(7-(((6-Methylpyridin-2-yl)(piperidin-3-yl)methyl)amino)thianthren-1-yl)-4-morpholino pyridin-2(1H)-one], the IC50 was 500 to 2000 nM.
As to `CN(C)c1ncc(CNc2ccc3c(c2)Sc2cccc(-c4cc(N5CCOCC5)cc(=O)[nH]4)c2O3)cn1` [Example 4-4-5, 6-(8-(((2-(Dimethylamino)pyrimidin-5-yl)methyl)amino)phenoxathiin-4-yl)-4-morpholino pyridin-2 (1H)-one], the IC50 lay in the range of 100 to 500 nM.
